Laboratory results taken from ChEMBL document CHEMBL5143622, “Synthesis and biological evaluation of 7H-pyrrolo [2,3-d] pyrimidine derivatives as potential p21-activated kinase 4 (PAK4) inhibitors” (Bioorg Med Chem, 2022).

Columns and labels:
[1] = molecular target: T1, Serine/threonine-protein kinase PAK 4 (Homo sapiens, UniProt O96013); experiment: Inhibition of human PAK4 assessed as enzymatic activity incubated for 20 mins by filter binding method
Target sequence in this assay (O96013 whole entry): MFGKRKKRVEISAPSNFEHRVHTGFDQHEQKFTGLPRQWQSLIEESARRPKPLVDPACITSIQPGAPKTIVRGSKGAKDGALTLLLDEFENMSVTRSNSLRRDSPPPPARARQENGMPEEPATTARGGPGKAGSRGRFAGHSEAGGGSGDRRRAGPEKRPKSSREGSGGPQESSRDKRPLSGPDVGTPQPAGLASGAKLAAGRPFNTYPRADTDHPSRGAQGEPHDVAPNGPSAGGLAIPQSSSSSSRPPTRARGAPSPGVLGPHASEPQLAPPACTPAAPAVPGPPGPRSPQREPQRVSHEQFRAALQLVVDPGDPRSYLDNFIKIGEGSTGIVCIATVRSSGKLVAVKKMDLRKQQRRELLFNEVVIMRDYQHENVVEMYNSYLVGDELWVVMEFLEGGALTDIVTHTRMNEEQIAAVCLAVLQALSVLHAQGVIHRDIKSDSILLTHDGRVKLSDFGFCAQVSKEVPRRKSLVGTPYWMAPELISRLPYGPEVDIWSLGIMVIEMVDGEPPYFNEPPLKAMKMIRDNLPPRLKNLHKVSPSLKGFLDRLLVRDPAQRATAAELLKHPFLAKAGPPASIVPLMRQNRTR

[2] = molecular target: T1, Serine/threonine-protein kinase PAK 4; experiment: Inhibition of human PAK4 assessed as enzymatic activity at 2 uM incubated for 20 mins by filter binding method relative to control
Target sequence in this assay (O96013 whole entry, looked up): as the sequence (O96013 whole entry) above

[3] = molecular target: T1, Serine/threonine-protein kinase PAK 4; experiment: Inhibition of human PAK4 assessed as inhibition constant
Target sequence in this assay (O96013 whole entry): as above

MDA-MB-231 = experiment: Antiproliferative activity against human MDA-MB-231 cells assessed as cell growth inhibition incubated for 72 hrs by cell titre glo luminescence assay; assay type: functional, cell-based; details: MDA-MB-231, 72 h
MV4-11 [4] = experiment: Induction of apoptosis in human MV4-11 cells assessed as viable cells at 50 nM incubated for 48 hrs by annexin V-FITC and propidium iodide staining based flow cytometry analysis (reference value: 95.6 %); assay type: functional; details: read-out: Activity
MV4-11 [5] = experiment: Induction of apoptosis in human MV4-11 cells assessed as late apoptotic cells at 10 nM incubated for 48 hrs by annexin V-FITC and propidium iodide staining based flow cytometry analysis (reference value: 1.67 %); assay type: functional
MV4-11 [6] = experiment: Induction of apoptosis in human MV4-11 cells assessed as necrotic cells at 250 nM incubated for 48 hrs by annexin V-FITC and propidium iodide staining based flow cytometry analysis (reference value: 0.013 %); assay type: functional
MV4-11 [7] = experiment: Induction of cell cycle arrest in human MV4-11 cells assessed as accumulation at G0/G1 phase at 50 nM incubated for 24 hrs by propidium iodide staining based flow cytometry analysis (reference value: 66.79 %); assay type: functional
MV4-11 [8] = experiment: Induction of apoptosis in human MV4-11 cells assessed as early apoptotic cells at 10 nM incubated for 48 hrs by annexin V-FITC and propidium iodide staining based flow cytometry analysis (reference value: 3.71 %); assay type: functional
MV4-11 [9] = experiment: Induction of cell cycle arrest in human MV4-11 cells assessed as accumulation at G2/M phase at 10 nM incubated for 24 hrs by propidium iodide staining based flow cytometry analysis (reference value: 7.46 %); assay type: functional
MV4-11 [10] = experiment: Induction of cell cycle arrest in human MV4-11 cells assessed as accumulation at S phase at 10 nM incubated for 24 hrs by propidium iodide staining based flow cytometry analysis (reference value: 25.75 %); assay type: functional
MV4-11 [11] = experiment: Induction of apoptosis in human MV4-11 cells assessed as viable cells at 250 nM incubated for 48 hrs by annexin V-FITC and propidium iodide staining based flow cytometry analysis (reference value: 95.6 %); assay type: functional; details: read-out: Activity
MV4-11 [12] = experiment: Induction of apoptosis in human MV4-11 cells assessed as viable cells at 10 nM incubated for 48 hrs by annexin V-FITC and propidium iodide staining based flow cytometry analysis (reference value: 95.6 %); assay type: functional; details: read-out: Activity
MV4-11 [13] = experiment: Induction of apoptosis in human MV4-11 cells assessed as necrotic cells at 10 nM incubated for 48 hrs by annexin V-FITC and propidium iodide staining based flow cytometry analysis (reference value: 0.013 %); assay type: functional
[14] = molecular target: T1, Serine/threonine-protein kinase PAK 4; experiment: Inhibition of PAK4 phosphorylation at Ser474 residue in human MV4-11 cells at 50 to 800 nM incubated for 24 hrs by Western blot analysis; assay type: cell-based; details: dose 50-800 nM, DDE = dose-dependent effect
Target sequence in this assay (O96013 whole entry, looked up): as the sequence (O96013 whole entry) above

[15] = Cytotoxicity against HEK293T cells assessed as cell growth inhibition incubated for 72 hrs by cell titre glo luminescence assay; assay type: toxicity, cell-based, HEK-293T; details: human
MV4-11 [16] = experiment: Antiproliferative activity against human MV4-11 cells assessed as cell growth inhibition incubated for 72 hrs by cell titre glo luminescence assay; assay type: functional, cell-based; details: MV4-11, 72 h
MV4-11 [17] = experiment: Induction of apoptosis in human MV4-11 cells assessed as late apoptotic cells at 50 nM incubated for 48 hrs by annexin V-FITC and propidium iodide staining based flow cytometry analysis (reference value: 1.67 %); assay type: functional
MV4-11 [18] = experiment: Induction of cell cycle arrest in human MV4-11 cells assessed as accumulation at G2/M phase at 5 nM incubated for 24 hrs by propidium iodide staining based flow cytometry analysis (reference value: 7.46 %); assay type: functional
MV4-11 [19] = experiment: Induction of apoptosis in human MV4-11 cells assessed as early apoptotic cells at 250 nM incubated for 48 hrs by annexin V-FITC and propidium iodide staining based flow cytometry analysis (reference value: 3.71 %); assay type: functional
MV4-11 [20] = experiment: Induction of cell cycle arrest in human MV4-11 cells assessed as accumulation at S phase at 5 nM incubated for 24 hrs by propidium iodide staining based flow cytometry analysis (reference value: 25.75 %); assay type: functional
MV4-11 [21] = experiment: Induction of cell cycle arrest in human MV4-11 cells assessed as accumulation at S phase at 50 nM incubated for 24 hrs by propidium iodide staining based flow cytometry analysis (reference value: 25.75 %); assay type: functional
MV4-11 [22] = experiment: Induction of apoptosis in human MV4-11 cells assessed as late apoptotic cells at 250 nM incubated for 48 hrs by annexin V-FITC and propidium iodide staining based flow cytometry analysis (reference value: 1.67 %); assay type: functional
MV4-11 [23] = experiment: Induction of cell cycle arrest in human MV4-11 cells assessed as accumulation at G0/G1 phase at 5 nM incubated for 24 hrs by propidium iodide staining based flow cytometry analysis (reference value: 66.79 %); assay type: functional
MV4-11 [24] = experiment: Induction of apoptosis in human MV4-11 cells assessed as early apoptotic cells at 50 nM incubated for 48 hrs by annexin V-FITC and propidium iodide staining based flow cytometry analysis (reference value: 3.71 %); assay type: functional
MV4-11 [25] = experiment: Induction of cell cycle arrest in human MV4-11 cells assessed as accumulation at G0/G1 phase at 10 nM incubated for 24 hrs by propidium iodide staining based flow cytometry analysis (reference value: 66.79 %); assay type: functional
MV4-11 [26] = experiment: Induction of apoptosis in human MV4-11 cells assessed as necrotic cells at 50 nM incubated for 48 hrs by annexin V-FITC and propidium iodide staining based flow cytometry analysis (reference value: 0.013 %); assay type: functional
MV4-11 [27] = experiment: Induction of cell cycle arrest in human MV4-11 cells assessed as accumulation at G2/M phase at 50 nM incubated for 24 hrs by propidium iodide staining based flow cytometry analysis (reference value: 7.46 %); assay type: functional

Nc1ccc(/C=C/C(=O)NCc2cc3cc(-c4ccc(C(=O)N5CCC(F)(F)CC5)cc4)cc(-c4ccc(F)cc4)c3o2)cn1 [PADNARSERTIB]
IC50 [1]: 100 nM

N[C@H]1CCCN(c2nc(Nc3cccc(Cl)c3)nc3[nH]ccc23)C1
inhibition [2]: 38.3% | IC50 [1]: 229 nM

COCCNc1nc2ccc(C#CC3(O)CCCCC3)cc2n1-c1ncnc(N)n1
Ki [3]: 3.3 nM

Fc1cccc(Nc2nc(NC3CCNCC3)c3cc[nH]c3n2)c1
inhibition [2]: 38.3% | IC50 [1]: 165 nM

N[C@H]1CC[C@@H](Nc2nc(Nc3cccc(Cl)c3)nc3[nH]ccc23)CC1
IC50 (MDA-MB-231): 825 nM | viability at 0.05 µM (MV4-11 [4]): 78.4% | Activity (MV4-11 [5]): 2.99% | Activity (MV4-11 [6]): 0.087% | Activity (MV4-11 [7]): 90.98% | Activity (MV4-11 [8]): 4.28% | Activity (MV4-11 [9]): 2.48% | Activity (MV4-11 [10]): 8.71% | viability at 0.25 µM (MV4-11 [11]): 72.8% | viability at 0.01 µM (MV4-11 [12]): 92.7% | Activity (MV4-11 [13]): 0.032% | inhibition [14]: Dde | IC50 at 72 h [15]: > 10 µM | IC50 (MV4-11 [16]): 7.8 nM | Activity (MV4-11 [17]): 9.71% | Activity (MV4-11 [18]): 3.97% | Activity (MV4-11 [19]): 14.5% | Activity (MV4-11 [20]): 17.34% | Activity (MV4-11 [21]): 7.75% | Activity (MV4-11 [22]): 12.5% | Activity (MV4-11 [23]): 78.7% | Activity (MV4-11 [24]): 11.9% | IC50 [1]: 2.7 nM | Activity (MV4-11 [25]): 88.81% | Activity (MV4-11 [26]): 0.043% | Activity (MV4-11 [27]): 1.27%

N[C@@H]1CCCN(c2nc(Nc3cccc(Cl)c3)nc3[nH]ccc23)C1
inhibition [2]: 72.5% | IC50 [1]: 229 nM

COc1cccc(Nc2nc(NC3CCNCC3)c3cc[nH]c3n2)c1
inhibition [2]: 46.2%

C[C@@H]1CN(C(=O)c2nc(Nc3cc(C4CC4)[nH]n3)c3cc(Cl)ccc3n2)CCN1
IC50 [1]: 9 nM

NCC1CCCN(c2nc(Nc3cccc(Cl)c3)nc3[nH]ccc23)C1 (stereo not given)
inhibition [2]: 61%

N[C@H]1CC[C@H](Nc2nc(Nc3cccc(Cl)c3)nc3[nH]ccc23)CC1
IC50 (MDA-MB-231): 2480 nM | IC50 at 72 h [15]: 7.39 µM | IC50 (MV4-11 [16]): 38.3 nM | IC50 [1]: 20.2 nM

Clc1cccc(Nc2nc(NCC3CCNCC3)c3cc[nH]c3n2)c1
inhibition [2]: 25.9%

CC1(N)CCN(c2nc(Nc3cccc(Cl)c3)nc3[nH]ccc23)CC1
inhibition [2]: 35.5%

c1ccc(Nc2nc(N3CCOCC3)c3cc[nH]c3n2)cc1
inhibition [2]: 91.6%

OCCNc1nc(Nc2ccccc2)nc2[nH]ccc12
inhibition [2]: 86.9%

Clc1cccc(Nc2nc(NC3CCNCC3)c3cc[nH]c3n2)c1
IC50 [1]: 50.3 nM

c1ccc(Nc2nc(NC3CCNCC3)c3cc[nH]c3n2)cc1
inhibition [2]: 64.2% | IC50 [1]: 2940 nM

c1ccc(Nc2nc(N3CCNCC3)c3cc[nH]c3n2)cc1
inhibition [2]: 89.6%

OCC(O)CNc1nc(Nc2ccccc2)nc2[nH]ccc12 (stereo not given)
inhibition [2]: 82.4%
